Tested on: single cells from the ventral hippocampus (vHipp)
Assay: Single-cell RNA sequencing (scRNA-seq) of the ventral hippocampus after ketamine treatment; differential expression per cell type
[1] = Astrocytes, ketamine 10 mg/kg i.p.
[2] = Astrocytes, ketamine 10 mg/kg i.p. vs saline

For CNC1(c2ccccc2Cl)CCCCC1=O (racemic) [ketamine, (R,S)-ketamine], the Change (Aarsd1, Glut Neurons) was “Down”, the Mean-Ket (Aarsd1, Glut Neurons) was 1.682 and the logFC (Aarsd1, Glut Neurons) was −0.119. The Change (Acad9, Glut Neurons) was “Up”, the Mean-Ket (Acad9, Glut Neurons) was 1.372 and the logFC (Acad9, Glut Neurons) was 0.210. The Change (Aire, Glut Neurons) was “Down”, the Mean-Ket (Aire, Glut Neurons) was 2.157 and the logFC (Aire, Glut Neurons) was −0.116. The Change (Akap5, Astrocytes) was “Down”, the Mean-Ket (Akap5, Astrocytes) was 4.005 and the logFC (Akap5, Astrocytes) was −0.219. For the same molecule, the “Aire Mean-Ket” value [1] was 2.361, the “Aktip Mean-Ket” value [1] was 1.656 and the “Atg2a Mean-Ket” value [1] was 1.418. The “Calm1 Mean-Ket” value [1] was 2.021, the “Calm2 Mean-Ket” value [1] was 1.730 and the “Capza2 Mean-Ket” value [1] was 3.001. For the same molecule, the “Cars2 Mean-Ket” value [1] was 2.703, the “Cep89 Mean-Ket” value [1] was 2.822 and the “Cox7a2 Mean-Ket” value [1] was 1.052. For the same molecule, the “Elp6 Mean-Ket” value [1] was 1.701, the “Fam193a Mean-Ket” value [1] was 2.684 and the “Gje1 Mean-Ket” value [1] was 0.961. The “Gmeb1 Mean-Ket” value [1] was 2.962, the “Hadhb Mean-Ket” value [1] was 1.956 and the “Haus8 Mean-Ket” value [1] was 1.269. The “Lztr1 Mean-Ket” value [1] was 1.556, the “Mettl3 Mean-Ket” value [1] was 2.842 and the “Mrp19 Mean-Ket” value [1] was 2.904. For the same molecule, the “Mterf3 Mean-Ket” value [1] was 1.289, the “Nop58 Mean-Ket” value [1] was 2.828 and the “P3h3 Mean-Ket” value [1] was 2.495. The “Parp1 Mean-Ket” value [1] was 2.675, the “Polr2c Mean-Ket” value [1] was 2.613 and the “Ppan Mean-Ket” value [1] was 2.916. For the same molecule, the “Rfc2 Mean-Ket” value [1] was 0.929, the “Rpap1 Mean-Ket” value [1] was 1.265 and the “Sec23ip Mean-Ket” value [1] was 2.886. For the same molecule, the “Slc23a1 Mean-Ket” value [1] was 2.421, the “Snf8 Mean-Ket” value [1] was 2.945 and the “Sumf2 Mean-Ket” value [1] was 1.532. The “Tecr Mean-Ket” value [1] was 1.562, the “Tuba1b Mean-Ket” value [1] was 1.065 and the “Tubb2a Mean-Ket” value [1] was 0.960. For the same molecule, the “Uba2 Mean-Ket” value [1] was 1.413, the “Vps8 Mean-Ket” value [1] was 2.087 and the “Zcchc4 Mean-Ket” value [1] was 0.999. For the same molecule, the “Aire Change” value [2] was “Down”, the “Aire logFC” value [2] was −0.106 and the “Aktip Change” value [2] was “Down”. For the same molecule, the “Aktip logFC” value [2] was −0.119, the “Atg2a Change” value [2] was “Down” and the “Atg2a logFC” value [2] was −0.105. The “Calm1 Change” value [2] was “Down”, the “Calm1 logFC” value [2] was −0.155 and the “Calm2 Change” value [2] was “Down”. For the same molecule, the “Calm2 logFC” value [2] was −0.130, the “Capza2 Change” value [2] was “Down” and the “Capza2 logFC” value [2] was −0.082. For the same molecule, the “Cars2 Change” value [2] was “Down”, the “Cars2 logFC” value [2] was −0.090 and the “Cep89 Change” value [2] was “Down”. The “Cep89 logFC” value [2] was −0.075, the “Cox7a2 Change” value [2] was “Down” and the “Cox7a2 logFC” value [2] was −0.144. The “Elp6 Change” value [2] was “Down”, the “Elp6 logFC” value [2] was −0.124 and the “Fam193a Change” value [2] was “Down”. The “Fam193a logFC” value [2] was −0.088, the “Gje1 Change” value [2] was “Down” and the “Gje1 logFC” value [2] was −0.108. The “Gmeb1 Change” value [2] was “Down”, the “Gmeb1 logFC” value [2] was −0.074 and the “Hadhb Change” value [2] was “Down”. The “Hadhb logFC” value [2] was −0.103, the “Haus8 Change” value [2] was “Down” and the “Haus8 logFC” value [2] was −0.116. For the same molecule, the “Lztr1 Change” value [2] was “Down”, the “Lztr1 logFC” value [2] was −0.130 and the “Mettl3 Change” value [2] was “Down”. The “Mettl3 logFC” value [2] was −0.077, the “Mrp19 Change” value [2] was “Down” and the “Mrp19 logFC” value [2] was −0.074. For the same molecule, the “Mterf3 Change” value [2] was “Down”, the “Mterf3 logFC” value [2] was −0.125 and the “Nop58 Change” value [2] was “Down”. The “Nop58 logFC” value [2] was −0.094, the “P3h3 Change” value [2] was “Down” and the “P3h3 logFC” value [2] was −0.092. For the same molecule, the “Parp1 Change” value [2] was “Down”, the “Parp1 logFC” value [2] was −0.079 and the “Polr2c Change” value [2] was “Down”. For the same molecule, the “Polr2c logFC” value [2] was −0.091, the “Ppan Change” value [2] was “Down” and the “Ppan logFC” value [2] was −0.074. The “Rfc2 Change” value [2] was “Down”, the “Rfc2 logFC” value [2] was −0.121 and the “Rpap1 Change” value [2] was “Down”. For the same molecule, the “Rpap1 logFC” value [2] was −0.125, the “Sec23ip Change” value [2] was “Down” and the “Sec23ip logFC” value [2] was −0.086. For the same molecule, the “Slc23a1 Change” value [2] was “Down”, the “Slc23a1 logFC” value [2] was −0.099 and the “Snf8 Change” value [2] was “Down”. For the same molecule, the “Snf8 logFC” value [2] was −0.074, the “Sumf2 Change” value [2] was “Down” and the “Sumf2 logFC” value [2] was −0.127. The “Tecr Change” value [2] was “Down”, the “Tecr logFC” value [2] was −0.242 and the “Tuba1b Change” value [2] was “Down”. For the same molecule, the “Tuba1b logFC” value [2] was −0.115, the “Tubb2a Change” value [2] was “Down” and the “Tubb2a logFC” value [2] was −0.113. For the same molecule, the “Uba2 Change” value [2] was “Down”, the “Uba2 logFC” value [2] was −0.113 and the “Vps8 Change” value [2] was “Down”. For the same molecule, the “Vps8 logFC” value [2] was −0.120, the “Zcchc4 Change” value [2] was “Down” and the “Zcchc4 logFC” value [2] was −0.112. The Change (Atp5a1, Glut Neurons) was “Down”, the Mean-Ket (Atp5a1, Glut Neurons) was 0.832 and the logFC (Atp5a1, Glut Neurons) was −0.162. The Change (Atp5j2, Glut Neurons) was “Down”, the Mean-Ket (Atp5j2, Glut Neurons) was 0.851 and the logFC (Atp5j2, Glut Neurons) was −0.169. For the same molecule, the Change (Atp5j, Glut Neurons) was “Down”, the Mean-Ket (Atp5j, Glut Neurons) was 1.199 and the logFC (Atp5j, Glut Neurons) was −0.230. For the same molecule, the Change (Atp6v0e2, Astrocytes) was “Down”, the Mean-Ket (Atp6v0e2, Astrocytes) was 1.529 and the logFC (Atp6v0e2, Astrocytes) was −0.138. For the same molecule, the Change (Atp5h, Glut Neurons) was “Down”, the Mean-Ket (Atp5h, Glut Neurons) was 1.341 and the logFC (Atp5h, Glut Neurons) was −0.231.
